How the values were obtained:
Swiss male mice = assay: preliminary study of the main pharmacologic effects, observation of symptoms and reflexes in mice; assay type: in vivo; conditions: 300 mg/kg
Procedure: A preliminary study has been made of the main pharmacologic effects using Swiss male mice distributed in groups of four animals; each group was administered one of the products in doses of 300 mg/kg and the animals began to be observed, logging the time when symptoms appeared or given reflexes decreased: spontaneous activity, appearance of stereotype, trembling, convulsions, abnormal body position, loss of reflexes, extent of palpebral aperture, salivation, pyloerection, hypothermia, lachrymation or change in skin colour; observation lasted for 30 minutes and was repeated 1, 2, 3, 4 and 24 hours after treatment; the reference compound chosen was a well-known antiallergic, ketotyphene.

[1] = biological target: guinea pig isolated ileum contractions caused by histamine (Cavia porcellus, UniProt P31389); assay: guinea pig isolated ileum contractions caused by histamine (in vitro antihistaminic activity); assay type: cell-based; conditions: drug concentration inhibiting 50% of the response to histamine; 10 minutes of incubation with each concentration; Tyrode solution at 37°C; unit M only printed in method b12 (10⁻⁸-10⁻⁵ M); read-out: CI50 (the source's name)
Chain of guinea pig isolated ileum contractions caused by histamine (P31389 whole entry): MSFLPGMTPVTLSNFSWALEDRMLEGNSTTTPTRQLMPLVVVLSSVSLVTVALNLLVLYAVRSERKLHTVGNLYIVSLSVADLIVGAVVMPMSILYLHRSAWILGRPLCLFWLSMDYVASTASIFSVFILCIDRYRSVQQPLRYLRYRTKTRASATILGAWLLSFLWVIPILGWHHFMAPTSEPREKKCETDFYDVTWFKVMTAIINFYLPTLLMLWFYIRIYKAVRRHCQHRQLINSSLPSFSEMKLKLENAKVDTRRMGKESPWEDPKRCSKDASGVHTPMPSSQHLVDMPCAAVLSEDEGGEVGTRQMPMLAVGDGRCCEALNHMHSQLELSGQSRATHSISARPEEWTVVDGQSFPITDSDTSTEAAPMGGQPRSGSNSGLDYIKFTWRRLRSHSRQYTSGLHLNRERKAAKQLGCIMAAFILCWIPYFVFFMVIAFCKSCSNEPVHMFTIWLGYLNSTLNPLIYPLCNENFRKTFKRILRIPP

[2] = Swiss male mice, groups of four, observed 30 minutes and 1, 2, 3, 4 and 24 hours after treatment

1-[(4-chlorophenyl)methyl]-N-[1-(diphenylmethyl)piperidine-4-yl]-2-amino-1 H-benzimidazol [Example 4]
Maximum effect observed/No. of animals Decreased spontaneous activity (Swiss male mice; [2]): 0
IC50 [1]: 63 nM

N-[(1-diphenylmethyl)piperidine-4-yl]-1-[(4-fluorophenyl)methyl]-2-amino-1 H-benzimidazol [Example 5]
Maximum effect observed/No. of animals Decreased spontaneous activity (Swiss male mice; [2]): 0
IC50 [1]: 56 nM

CN1CCC(=C2c3ccccc3CC(=O)c3sccc32)CC1 [Ketotiphene]
Maximum effect observed/No. of animals Body reflex loss (Swiss male mice; [2]): 1/4
Maximum effect observed/No. of animals Decreased spontaneous activity (Swiss male mice; [2]): 2/4
Maximum effect observed/No. of animals Hearing reflex loss (Swiss male mice; mouse, in vivo): -
Maximum effect observed/No. of animals Hypothermia (Swiss male mice; mouse, in vivo): 4/4
Maximum effect observed/No. of animals Palpebral potosis (Swiss male mice; mouse, in vivo): 1/4

Reference: patent publication EP0390718A1, “Process for preparing new 1-diphenylmethylpiperidine derivatives” (FABRICA ESPANOLA DE PRODUCTOS QUIMICOS Y FARMACEUTICOS, …, priority 1989, dated 1990)
